In ChEMBL document CHEMBL1201862, “PubChem BioAssay data set” (2004):
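Each compound was tested at five concentrations against cells in 96-well plates for 48 hours. Abbreviation: GI50, concentration required for 50% inhibition of growth.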 Calls of active or inactive are those of the source. Cut-off read from the data, not from the text of the source: active = GI50 up to about 1.1 µM and inactive = higher.

What was measured:
Assay in all cases: DTP human tumour cell line panel, 48 h
786-0 = system: 786-0
A498 = system: A498
A549 = system: A549
ACHN = system: ACHN
BT-549 = system: BT-549
CAKI-1 = system: CAKI-1
CCRF-CEM = system: CCRF-CEM
COLO 205 = system: COLO 205
DU-145 = system: DU-145
EKVX = system: EKVX
HCT-116 = system: HCT-116
HCT-15 = system: HCT-15
HL-60 = system: HL-60
HOP-62 = system: HOP-62
HOP-92 = system: HOP-92
HT-29 = system: HT-29
Hs-578T = system: Hs-578T
IGROV-1 = system: IGROV-1
K562 = system: K562
KM12 = system: KM12
LOX IMVI = system: LOX IMVI
M14 = system: M14
MCF7 = system: MCF7
MDA-MB-231 = system: MDA-MB-231
MDA-MB-435 = system: MDA-MB-435
MDA-N = system: MDA-N
MOLT-4 = system: MOLT-4
Malme-3M = system: Malme-3M
NCI-H226 = system: NCI-H226
NCI-H23 = system: NCI-H23
NCI-H460 = system: NCI-H460
NCI-H522 = system: NCI-H522
NCI/ADR-RES = system: NCI/ADR-RES
OVCAR-3 = system: OVCAR-3
OVCAR-4 = system: OVCAR-4
OVCAR-5 = system: OVCAR-5
OVCAR-8 = system: OVCAR-8
PC-3 = system: PC-3
RPMI-8226 = system: RPMI-8226
SF-268 = system: SF-268
SF-295 = system: SF-295
SF-539 = system: SF-539
SK-MEL-28 = system: SK-MEL-28
SK-MEL-5 = system: SK-MEL-5
SN12C = system: SN12C
SNB-19 = system: SNB-19
SNB-75 = system: SNB-75
SR = system: SR
SW-620 = system: SW-620
T47D = system: T47D
TK-10 = system: TK-10
U-251 = system: U-251
UACC-257 = system: UACC-257
UACC-62 = system: UACC-62
UO-31 = system: UO-31
HCC 2998 = system: HCC 2998
RXF 393 = system: RXF 393
SK-MEL-2 = system: SK-MEL-2
SK-OV-3 = system: SK-OV-3

SMILES: COC(=O)C(Cc1c[nH]c2ccccc12)NP(=O)(O)OCC1OC(n2ccc(N)nc2=O)C(O)C1O (stereo unspecified)
- GI50 (786-0): > 100 µM (inactive)
- GI50 (A498): > 100 µM (inactive)
- GI50 (A549): > 100 µM (inactive)
- GI50 (ACHN): > 100 µM (inactive)
- GI50 (BT-549): > 100 µM (inactive)
- GI50 (CAKI-1): > 100 µM (inactive)
- GI50 (CCRF-CEM): 88.3 µM (inactive)
- GI50 (COLO 205): > 100 µM (inactive)
- GI50 (DU-145): > 100 µM (inactive)
- GI50 (EKVX): > 100 µM (inactive)
- GI50 (HCT-116): > 100 µM (inactive)
- GI50 (HCT-15): > 100 µM
- GI50 (HL-60): > 100 µM (inactive)
- GI50 (HOP-62): > 100 µM (inactive)
- GI50 (HOP-92): > 100 µM (inactive)
- GI50 (HT-29): > 100 µM (inactive)
- GI50 (Hs-578T): > 100 µM (inactive)
- GI50 (IGROV-1): > 100 µM (inactive)
- GI50 (K562): > 100 µM (inactive)
- GI50 (KM12): > 100 µM (inactive)
- GI50 (LOX IMVI): > 100 µM (inactive)
- GI50 (M14): > 100 µM (inactive)
- GI50 (MCF7): > 100 µM (inactive)
- GI50 (MDA-MB-231): > 100 µM (inactive)
- GI50 (MDA-MB-435): > 100 µM (inactive)
- GI50 (MDA-N): > 100 µM (inactive)
- GI50 (MOLT-4): > 100 µM (inactive)
- GI50 (Malme-3M): > 100 µM (inactive)
- GI50 (NCI-H226): > 100 µM (inactive)
- GI50 (NCI-H23): > 100 µM (inactive)
- GI50 (NCI-H460): > 100 µM (inactive)
- GI50 (NCI-H522): > 100 µM (inactive)
- GI50 (NCI/ADR-RES): > 100 µM (inactive)
- GI50 (OVCAR-3): > 100 µM (inactive)
- GI50 (OVCAR-4): > 100 µM (inactive)
- GI50 (OVCAR-5): > 100 µM (inactive)
- GI50 (OVCAR-8): > 100 µM (inactive)
- GI50 (PC-3): > 100 µM (inactive)
- GI50 (RPMI-8226): > 100 µM (inactive)
- GI50 (SF-268): > 100 µM (inactive)
- GI50 (SF-295): > 100 µM (inactive)
- GI50 (SF-539): > 100 µM (inactive)
- GI50 (SK-MEL-28): > 100 µM (inactive)
- GI50 (SK-MEL-5): > 100 µM (inactive)
- GI50 (SN12C): > 100 µM (inactive)
- GI50 (SNB-19): > 100 µM (inactive)
- GI50 (SNB-75): > 100 µM (inactive)
- GI50 (SR): 82.2 µM (inactive)
- GI50 (SW-620): > 100 µM (inactive)
- GI50 (T47D): > 100 µM (inactive)
- GI50 (TK-10): > 100 µM (inactive)
- GI50 (U-251): > 100 µM (inactive)
- GI50 (UACC-257): > 100 µM (inactive)
- GI50 (UACC-62): 85.9 µM (inactive)
- GI50 (UO-31): > 100 µM (inactive)

SMILES: Cc1noc(NS(=O)(=O)c2ccc(NC(=O)c3ccc4[nH]c5ccccc5c(=O)c4c3)cc2)c1C
- GI50 (786-0): 46.2 µM (inactive)
- GI50 (A549): > 100 µM (inactive)
- GI50 (ACHN): 53.8 µM (inactive)
- GI50 (BT-549): 33.3 µM (inactive)
- GI50 (CAKI-1): > 100 µM (inactive)
- GI50 (CCRF-CEM): 23.7 µM (inactive)
- GI50 (COLO 205): 37.2 µM (inactive)
- GI50 (DU-145): > 100 µM (inactive)
- GI50 (EKVX): 80.4 µM (inactive)
- GI50 (HCC 2998): 22.3 µM (inactive)
- GI50 (HCT-116): 47.9 µM (inactive)
- GI50 (HCT-15): > 100 µM
- GI50 (HL-60): 27.4 µM (inactive)
- GI50 (HOP-62): 50.1 µM (inactive)
- GI50 (HOP-92): 37.3 µM (inactive)
- GI50 (HT-29): 39.3 µM (inactive)
- GI50 (Hs-578T): 42 µM (inactive)
- GI50 (IGROV-1): > 100 µM (inactive)
- GI50 (K562): 28.1 µM (inactive)
- GI50 (KM12): 36.1 µM (inactive)
- GI50 (LOX IMVI): 22.8 µM (inactive)
- GI50 (M14): > 100 µM (inactive)
- GI50 (MCF7): 30.5 µM (inactive)
- GI50 (MDA-MB-231): 45.9 µM (inactive)
- GI50 (MDA-MB-435): 35.6 µM (inactive)
- GI50 (MDA-N): 57.8 µM (inactive)
- GI50 (MOLT-4): 21.9 µM (inactive)
- GI50 (Malme-3M): 27 µM (inactive)
- GI50 (NCI-H226): > 100 µM (inactive)
- GI50 (NCI-H23): 93.3 µM (inactive)
- GI50 (NCI-H460): 87.9 µM (inactive)
- GI50 (NCI-H522): 26.4 µM (inactive)
- GI50 (NCI/ADR-RES): > 100 µM (inactive)
- GI50 (OVCAR-3): 23.6 µM (inactive)
- GI50 (OVCAR-4): 39.4 µM (inactive)
- GI50 (OVCAR-5): > 100 µM (inactive)
- GI50 (OVCAR-8): 32.2 µM (inactive)
- GI50 (PC-3): 36.1 µM (inactive)
- GI50 (RPMI-8226): 50.4 µM (inactive)
- GI50 (RXF 393): 36.4 µM (inactive)
- GI50 (SF-268): 40.7 µM (inactive)
- GI50 (SF-295): 42.2 µM (inactive)
- GI50 (SF-539): 20.6 µM (inactive)
- GI50 (SK-MEL-28): 35.4 µM (inactive)
- GI50 (SK-MEL-2): 32.1 µM (inactive)
- GI50 (SK-MEL-5): 44 µM (inactive)
- GI50 (SK-OV-3): 61.9 µM (inactive)
- GI50 (SN12C): > 100 µM (inactive)
- GI50 (SNB-19): 87.9 µM (inactive)
- GI50 (SNB-75): 32.1 µM (inactive)
- GI50 (SR): 29.1 µM (inactive)
- GI50 (SW-620): > 100 µM (inactive)
- GI50 (T47D): 26.1 µM (inactive)
- GI50 (TK-10): > 100 µM (inactive)
- GI50 (U-251): 27.4 µM (inactive)
- GI50 (UACC-257): > 100 µM (inactive)
- GI50 (UACC-62): 49.5 µM (inactive)
- GI50 (UO-31): 75 µM (inactive)

SMILES: Cc1ccc(Nc2nc3ccccc3nc2NS(=O)(=O)c2ccc(N)cc2)cc1
- GI50 (786-0): 82.4 µM (inactive)
- GI50 (A549): 34.5 µM (inactive)
- GI50 (ACHN): 38.5 µM (inactive)
- GI50 (BT-549): 5.35 µM (inactive)
- GI50 (CAKI-1): 59.2 µM (inactive)
- GI50 (CCRF-CEM): 18.4 µM (inactive)
- GI50 (COLO 205): 45.8 µM (inactive)
- GI50 (DU-145): 97.9 µM (inactive)
- GI50 (EKVX): > 100 µM (inactive)
- GI50 (HCC 2998): 3.64 µM (inactive)
- GI50 (HCT-116): 37.3 µM (inactive)
- GI50 (HCT-15): 49.8 µM
- GI50 (HL-60): 21.9 µM (inactive)
- GI50 (HOP-62): > 100 µM (inactive)
- GI50 (HOP-92): 95.9 µM (inactive)
- GI50 (HT-29): 68.4 µM (inactive)
- GI50 (Hs-578T): 65.5 µM (inactive)
- GI50 (IGROV-1): 56.8 µM (inactive)
- GI50 (K562): 31.5 µM (inactive)
- GI50 (KM12): 23.5 µM (inactive)
- GI50 (LOX IMVI): 70.3 µM (inactive)
- GI50 (M14): 57.7 µM (inactive)
- GI50 (MCF7): 45.2 µM (inactive)
- GI50 (MDA-MB-231): > 100 µM (inactive)
- GI50 (MDA-MB-435): 30.7 µM (inactive)
- GI50 (MDA-N): 41.4 µM (inactive)
- GI50 (MOLT-4): 15.6 µM (inactive)
- GI50 (Malme-3M): 91.2 µM (inactive)
- GI50 (NCI-H226): 78.7 µM (inactive)
- GI50 (NCI-H23): 3.2 µM (inactive)
- GI50 (NCI-H460): 4.89 µM (inactive)
- GI50 (NCI-H522): 25.2 µM (inactive)
- GI50 (NCI/ADR-RES): 61.8 µM (inactive)
- GI50 (OVCAR-3): 65 µM (inactive)
- GI50 (OVCAR-4): 19.3 µM (inactive)
- GI50 (OVCAR-5): > 100 µM (inactive)
- GI50 (OVCAR-8): 81.8 µM (inactive)
- GI50 (PC-3): 41.8 µM (inactive)
- GI50 (RPMI-8226): 23.6 µM (inactive)
- GI50 (RXF 393): 30.8 µM (inactive)
- GI50 (SF-268): 89.7 µM (inactive)
- GI50 (SF-295): 46.7 µM (inactive)
- GI50 (SF-539): 39.4 µM (inactive)
- GI50 (SK-MEL-28): 33.4 µM (inactive)
- GI50 (SK-MEL-2): 29.4 µM (inactive)
- GI50 (SK-MEL-5): 39.2 µM (inactive)
- GI50 (SK-OV-3): > 100 µM (inactive)
- GI50 (SN12C): 48.3 µM (inactive)
- GI50 (SNB-19): 31.1 µM (inactive)
- GI50 (SNB-75): 84.9 µM (inactive)
- GI50 (SR): 20.7 µM (inactive)
- GI50 (SW-620): 20.4 µM (inactive)
- GI50 (T47D): 44 µM (inactive)
- GI50 (TK-10): 45.9 µM (inactive)
- GI50 (U-251): 30.2 µM (inactive)
- GI50 (UACC-257): > 100 µM (inactive)
- GI50 (UACC-62): 36.1 µM (inactive)
- GI50 (UO-31): 21.5 µM (inactive)
